Data from patent publication US20180028477A1, “TREATMENT OF CARDIAC REMODELING AND OTHER HEART CONDITIONS” (C & C BIOPHARMA, LLC, priority 2013, published 2018).
Values joined by “and” are separate entries in the source; they are usually repeats but may differ in a detail not shown here. Equal values may be shown once. “Also recorded” adds a separate entry of the source.

Experiments:
[1] = Tolerability in mice, daily dosing for four weeks; type: in vivo; conditions: 100 mg/Kg daily for four weeks
[2] = Serum chemistries in mice subjected to TAC and treated with 8MI (Example 6); type: in vivo; conditions: for ALT / BUN / Calcium / Creatinine / Glucose / Total Protein: serum, TAC
Procedure: The effects of 8MI on hypertrophy in a model of moderate pressure overload were tested further (FIGS. 5A-5E). 8MI or its vehicle (DMSO) was administered over a range of concentrations immediately prior to and for 21 days following transverse aortic coarctation (TAC). All experiments were performed on 2-3 month old wild type C57/BL/6 mice. Cardiac hypertrophy was induced by TAC as described in Wei et. al. 2008. Pressure gradients induced by TAC were evaluated postoperatively by pulsed-wave Doppler echocardiography to confirm equivalent gradients in all animals (45±5 mmHg). 8MI was delivered via tail vein injection one day prior to surgical intervention and then daily for 21 days. Blood samples were obtained at sacrifice on day 21 after surgery, and serum was frozen at […] until analysis
Prior to sacrifice, serum was extracted from the blood of the mice treated as described in Example 4.

[3] = system: cardiac function after TAC in mice; experiment: Echocardiography of cardiac function 21 days post TAC (Example 8); type: in vivo
Procedure: Masson's Trichrome was used to visualize cardiac four-chamber anatomy. Paraffin embedded sections were used for staining (FIG. 5B). Representative wheat germ agglutinin (WGA)-stained sections of myocardium from the mice were prepared. For echocardiography (FIG. 5C), mice were placed under anesthesia with 40 mg/kg ketamine and 5 mg/kg xylocaine and secured in a supine position. Mice were evaluated using […] transducer on a Visual Sonics 770 High Resolution Imaging System. B-mode in the short and long axis view of the ventricle was used to evaluate wall motion defects of ventricle and M-mode in long axis view used for the interventricular septal thickness, posterior wall thickness and the left ventricular dimensions in systole and diastole.
Echocardiographic studies were performed on the mice to examine systolic function under the experimental conditions described in Example 4. […] As expected, TAC induced a 37% fall in ejection fraction at 21 days (sham, 82.4±1.8% vs. TAC, 51.7±5.1%) (FIG. 8A). […] The mice maintained a near-normal ejection fraction of 75.4% at the highest dose of 8MI (FIG. 8A). […] LV end diastolic diameter (LViDd) (FIG. 8D), LV end-systolic diameter (LViDs) (FIG. 8E), LV systolic volume (LV Vs) (FIG. 8F), and LV diastolic volume (LV Vd) (FIG. 8G) were increased by TAC and diminished in the presence of 8MI. […] Heart rate was unaffected in all mice (FIG. 8H).

[4] = Metabolic stability in human liver microsomes fortified with NADPH (Example 11); type: in vitro ADME; set-up: CLint scaled: dose or concentration left out as unconfirmed
Source text: Drug clearance is a measure of the ability of the body or an organ to eliminate a drug from the blood circulation. Systemic clearance is a measure of the ability of the entire body to eliminate the drug. Organ clearance is a measure of the ability of a particular organ (hepatic or renal) to eliminate the drug. For hepatic clearance, the liver is the major organ for drug metabolism and the key organ for drug clearance. Human liver microsomes (HLM) fortified with NADPH is a standard way to measure in vitro metabolism and predict in vivo clearance. CLint (intrinsic clearance) is the link between in vitro and in vivo studies, which can be estimated based on the mono-exponential decay model: Ct=C X e^−kt.
Human liver microsomes fortified with NADPH is a standard approach to evaluate metabolic stability mediated by CYP (cytochrome P450) enzymes in vitro. The reaction mixture (0.4 mL) contained 0.5 mg/mL human liver microsomes, 100 mM phosphate buffer (pH 7.4) and […] of test compounds. The mixture was first warmed up for 5 min in a 37° C. shaking water bath and then NADPH at a final concentration of 1 mM was added to initiate the reaction. Aliquots […] were taken at specified time points and mixed with ice-cold methanol (containing internal standard) to stop the reaction. The mixture was vortexed briefly and centrifuged for protein precipitation. An aliquot of […] supernatant was subject to LC-MS/MS analysis. The percentage of compound disappearance was used to calculate the rate of metabolism.

[5] = 8MI 5 mg/kg, individual mice #7-9
[6] = 8MI 20 mg/kg, individual mice #10-12
[7] = 8MI 40 mg/kg, individual mice #13-15
[8] = 21 days post TAC, depressed by TAC
[9] = 21 days post TAC, increased by TAC

In the case of `Nc1ccccc1NC(=O)CCCCCC(=O)Nc1cccc(Br)c1` [8MI], the “signs of kidney or liver damage or other adverse effects” value [1] is reported as “no sign of kidney or liver damage or other adverse effects; also recorded: without any signs of kidney or liver disease or other adverse effects”, the “tolerability from serum chemistries” value ([2]; TAC mice, 5-40 mg/kg, 21 days) is reported as “well tolerated” and the “mice with significant renal and/or hepatic dysfunction induced by TAC” value ([2]; mice receiving any dose of 8MI (control: 2 out of 3)) is reported as 1 out of 9. The ALT [2, 5] was 47 U/L and 53 U/L and 58 U/L, the BUN [2, 5] was 26 mg/dL and 21 mg/dL and 25 mg/dL and the Calcium [2, 5] was 11.7 mg/dL and 9.7 mg/dL and 11 mg/dL. The Creatinine [2, 5] was 0.2 mg/dL, the Glucose [2, 5] was 375 mg/dL and 158 mg/dL and 294 mg/dL and the “Total Protein” value [2, 5] was 5.6 g/dL and 5.8 g/dL and 5.4 g/dL. For the same compound, the ALT [2, 6] was 51 U/L and 73 U/L and 57 U/L, the BUN [2, 6] was 21 mg/dL and 19 mg/dL and 28 mg/dL and the Calcium [2, 6] was 9.9 mg/dL and 10.3 mg/dL and 11.1 mg/dL. For the same compound, the Creatinine [2, 6] was 0.2 mg/dL, the Glucose [2, 6] was 224 mg/dL and 177 mg/dL and 326 mg/dL and the “Total Protein” value [2, 6] was 5.3 g/dL and 5.6 g/dL and 6.0 g/dL. For the same compound, the ALT [2, 7] was 56 U/L and 308 U/L and 60 U/L, the BUN [2, 7] was 21 mg/dL and 26 mg/dL and 23 mg/dL and the Calcium [2, 7] was 10.6 mg/dL and 8.7 mg/dL and 10.1 mg/dL. For the same compound, the Creatinine [2, 7] was 0.3 mg/dL (2×) and 0.6 mg/dL, the Glucose [2, 7] was 455 mg/dL and 140 mg/dL and 252 mg/dL and the “Total Protein” value [2, 7] was 6.2 g/dL and 5.5 g/dL and 5.7 g/dL. For the same compound, the “systolic function / cardiac function under sustained pressure overload” value ([3]; 21 days post TAC, 5, 20 and 40 mg/kg, dose-dependent) was “preserved systolic function; also recorded: preservation of cardiac function”, the ejection fraction ([3]; 21 days post TAC, highest dose of 8MI (sham 82.4±1.8%, TAC 51.7±5.1%)) was 75.4% and the “fractional shortening (FS)” value [3, 8] was “similarly restored”. For the same compound, the stroke volume [3, 8] was “similarly restored”, the “LV end diastolic diameter (LViDd)” value [3, 9] was “diminished” and the “LV end-systolic diameter (LViDs)” value [3, 9] was “diminished”. The “LV systolic volume (LV Vs)” value [3, 9] was “diminished”, the heart rate ([3]; all mice, 21 days) was “unaffected” and the “cardiac function in sham-operated mice” value ([3]; sham-operated mice treated with 8MI) was “normal cardiac function”. The “K (rate constant)” value ([4]; 0.5 mg/mL human liver microsomes, 1 mM NADPH, pH 7.4, 37° C.) was 0.0046 min⁻¹, the “Clhp (hepatic clearance)” value ([4]; human liver microsomes) was 3.85 mL/min/kg and the CLint scaled ([4]; pH 7.4, human liver microsomes, from mono-exponential decay model, read-out: Clint (intrinsic clearance)) was 4.73 mL/min/kg.
